The record followed here is patent publication US11564923B2, “Compounds and pharmaceutical compositions thereof for the treatment of inflammatory disorders” (Galapagos NV, priority 2017, dated 2023).

Assay [1] has as its target T1, Recombinant human TYK2 catalytic domain (amino acids 871-1187) (Homo sapiens, UniProt P29597).
T1 construct: catalytic domain (amino acids 871-1187)
T1 sequence (P29597 871-1187): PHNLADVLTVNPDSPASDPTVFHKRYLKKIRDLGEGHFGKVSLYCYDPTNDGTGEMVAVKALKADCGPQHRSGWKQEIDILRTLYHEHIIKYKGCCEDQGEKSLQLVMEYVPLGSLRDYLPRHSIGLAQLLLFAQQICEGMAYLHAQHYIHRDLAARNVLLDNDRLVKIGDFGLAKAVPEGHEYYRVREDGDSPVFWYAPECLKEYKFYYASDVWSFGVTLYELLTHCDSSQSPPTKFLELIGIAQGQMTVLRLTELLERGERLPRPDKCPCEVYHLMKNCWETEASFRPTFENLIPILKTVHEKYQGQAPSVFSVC
Briefly: TYK2 radioactive assay polyGT substrate. Also: 0.1 µM ATP. It is filed as biochemical. The essentials: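 Reaction at 30° C. for 120 min, ended with 150 mM phosphoric acid, washed, counted; percent inhibition scaled between vehicle and 10 μM staurosporine cpm.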

The test system of assay [2] is IFNα activation of STAT1 in PBMC. Put plainly: IFNα activation of STAT1 in PBMC. It is filed as cell-based. To be noted: Homo sapiens; IFNα activation of STAT1 in PBMC; average IC50; read-out: IFNα signaling inhibitory potency IC50. How it is done:
After these 2 wash steps the cell pellet is dissolved in ammonium chloride buffer (1.5 M NH4Cl, 100 mM NaHCO3 and 10 mM Na2.EDTA) for lysis of the red blood cells.
PBMC are treated with test compound for 30 min at 37° C. 5% CO2. […] After 30 min of test compound/vehicle pre-treatment, PBMC are stimulated for 30 min at 37° C. 5% CO2 with recombinant human IFNα (PeproTech, catalog number 300-02A) at a final concentration of 5 ng/mL by addition of 20 μL (10× concentrated) cytokine trigger to obtain a final volume of 200 μL per well.
After 30 min of cytokine stimulation, 200 μL of cell suspension is transferred to a 96-well V-bottom plate, centrifugated for 5 min at 1000 rpm to pellet cells, followed by removal of supernatant.
(§1) The percentage inhibition is calculated as: […]
RCLU(vehicle control): Relative Chemiluminescent signal determined in presence of vehicle and trigger
RCLU(test compound): Relative Chemiluminescent signal determined in presence of test compounds and trigger
RCLU(positive control): Relative Chemiluminescent signal determined in presence of positive control and trigger
PIN values are plotted for compounds tested in dose-response and average IC50 values are derived using GraphiPad Prism Software applying non-linear regression (sigmoidal) curve fitting.

Assay [3] concerns IL-12 activation of STAT4 in NK-92 cells. Briefly: IL-12 activation of STAT4 in NK-92 cells using AphaLISA SureFire technology. It is filed as cell-based. To be noted: Homo sapiens, NK92; IL-12 activation of STAT4 in NK-92 cells, AlphaLISA SureFire; average IC50; read-out: IL12 pSTAT4 IC50. As for the experimental part: IL-2 is added freshly to the medium with each medium refreshment step. Cells are cultured in a humidified incubator at 37° C. 5% CO2.
A subcultured fraction of NK-92 cells is washed once in culture medium without rhIL-2 the day before the experiment and incubated overnight in a culture flask.
5% CO2. […] NK-92 cells are triggered with rhIL-12 for 30 min at 37° C. 5% CO2.
After 30 min of cytokine stimulation the cells are lysed by addition of 15 μL 5× lysis buffer (supplemented with the AlphaLISA kit). After 10 minutes, plates are frozen at −80° C. overnight and the next day the levels of phospho-STAT4 are quantified using the AlphaLISA SureFire ULTRA p-STAT4 (Tyr693) (Perkin Elmer, Catalogue number ALSU-PST4-A10K) according to the manufacturers instructions. AlphaLISA signal (relative light units) is measured using an Envision (Perkin Elmer).
as §1
RLU(trigger/veh): Relative lumescent signal determined in presence of vehicle and trigger
RLU(test compound): Relative luminescent signal determined in presence of test compounds and trigger
PIN values are plotted for compounds tested in dose-response and IC50 values are derived using GraphPad Prism Software applying non-linear regression (sigmoidal) curve fitting. The data are expressed as the average IC50 from different experiments.

Regarding `Cc1cc(C#N)ncc1Oc1cc(Nc2ccc(C(=O)N3CCOCC3)nn2)c2ncn(C)c2n1` [Compound 108, 4-methyl-5-[3-methyl-7-[[6-(morpholine-4-carbonyl)pyridazin-3-yl]amino]imidazo[4,5-b]pyridin-5-yl]oxypyridine-2-carbonitrile], the IC50 worked out at 2.63 nM in assay [1], 52 nM in assay [2] and 94 nM in assay [3].

As for `Cc1cc(C#N)ncc1Oc1cc(Nc2ccc(C(=O)N3CC(CO)C3)cn2)c2ncn(C)c2n1` [Compound 118, 5-[7-[[5-[3-(hydroxymethyl)azetidine-1-carbonyl]-2-pyridyl]amino]-3-methyl-imidazo[4,5-b]pyridin-5-yl]oxy-4-methyl-pyridine-2-carbonitrile], the IC50 in assay [1] amounted to 2.81 nM; in assay [2] it was 110 nM; in assay [3], 299 nM.

Regarding `Cc1cc(C#N)ncc1Oc1cc(Nc2ccc(C(=O)N3CC(C)(O)C3)cn2)c2ncn(C)c2n1` [Compound 119, 5-[7-[[5-(3-hydroxy-3-methyl-azetidine-1-carbonyl)-2-pyridyl]amino]-3-methyl-imidazo[4,5-b]pyridin-5-yl]oxy-4-methyl-pyridine-2-carbonitrile], the IC50 in assay [1] was determined as 2.56 nM; in assay [2], 81 nM; in assay [3], 261 nM.

Consider `Cc1cc(C#N)ncc1Oc1cc(Nc2ccc(C(=O)N3CC[C@H](N(C)C)C3)cn2)c2ncn(C)c2n1` [Compound 133, 5-[7-[[5-[(3S)-3-(dimethylamino)pyrrolidine-1-carbonyl]pyridin-2-yl]amino]-3-methylimidazo[4,5-b]pyridin-5-yl]oxy-4-methylpyridine-2-carbonitrile], for which the IC50 in assay [1] stood at 6.67 nM; in assay [2], 121 nM; in assay [3] it was 981 nM.

`Cc1cc(C#N)ncc1Oc1cc(Nc2ccc(C(=O)N3CC(OC(C)C)C3)cn2)c2ncn(C)c2n1` [Compound 137, 4-methyl-5-[3-methyl-7-[[5-(3-propan-2-yloxyazetidine-1-carbonyl)pyridin-2-yl]amino]imidazo[4,5-b]pyridin-5-yl]oxypyridine-2-carbonitrile]: the IC50 in assay [1] was 2.32 nM; in assay [2], 62 nM; in assay [3], 89 nM.

Take `Cc1cc(C#N)ncc1Oc1cc(Nc2ccc(C(=O)N3CCC(C)(O)CC3)cn2)c2ncn(C)c2n1` [Compound 138, 5-[7-[[5-(4-hydroxy-4-methylpiperidine-1-carbonyl)pyridin-2-yl]amino]-3-methylimidazo[4,5-b]pyridin-5-yl]oxy-4-methylpyridine-2-carbonitrile]: the 50% inhibitory concentration (IC50) in assay [1] turned out to be 1.66 nM; in assay [2], 91 nM; in assay [3] it was 332 nM.

As for `Cc1cc(C#N)ncc1Oc1cc(Nc2ccc(C(=O)N3CCO[C@@H](C)C3)cn2)c2ncn(C)c2n1` [Compound 144, 4-methyl-5-[3-methyl-7-[[5-[(2S)-2-methylmorpholine-4-carbonyl]pyridin-2-yl]amino]imidazo[4,5-b]pyridin-5-yl]oxypyridine-2-carbonitrile], the concentration for half-maximal inhibition (IC50) in assay [1] turned out to be 2.15 nM; in assay [2] it was 119 nM; in assay [3], 211 nM.

As to `Cc1cc(C#N)ncc1Oc1cc(Nc2ccc(C(=O)N3CCO[C@H](C)C3)cn2)c2ncn(C)c2n1` [Compound 145, 4-methyl-5-[3-methyl-7-[[5-[(2R)-2-methylmorpholine-4-carbonyl]pyridin-2-yl]amino]imidazo[4,5-b]pyridin-5-yl]oxypyridine-2-carbonitrile], the IC50 was 2 nM in assay [1], 134 nM in assay [2] and 238 nM in assay [3].

For `Cc1cc(C#N)ncc1Oc1cc(Nc2ccc(C(=O)N3CCOC[C@@H]3C)cn2)c2ncn(C)c2n1` [Compound 147, 4-methyl-5-[3-methyl-7-[[5-[(3S)-3-methylmorpholine-4-carbonyl]pyridin-2-yl]amino]imidazo[4,5-b]pyridin-5-yl]oxypyridine-2-carbonitrile], the IC50 in assay [1] was found to be 1.66 nM; in assay [2], 121 nM; in assay [3] it was 213 nM.

In the case of `Cc1cc(C#N)ncc1Oc1cc(Nc2ccc(C(=O)N3C[C@@H](C)O[C@@H](C)C3)cn2)c2ncn(C)c2n1` [Compound 148, 4-methyl-5-[3-methyl-7-[[5-[rac-(2R,6S)-2,6-dimethylmorpholine-4-carbonyl]pyridin-2-yl]amino]imidazo[4,5-b]pyridn-5-yl]oxypyridine-2-carbonitrile], the IC50 in assay [1] is 2.08 nM; in assay [2], 142 nM; in assay [3] it was 160 nM.

With `Cc1cc(C#N)ncc1Oc1cc(Nc2ccc(C(=O)N3C[C@@H](O)[C@H](N(C)C)C3)cn2)c2ncn(C)c2n1` [Compound 153, 5-{7-[5-((3R,4R)-3-Dimethylamino-4-hydroxy-pyrrolidine-1-carbonyl)-pyridin-2-ylamino]-3-methyl-3H-imidazo[4,5-b]pyridin-5-yloxy}-4-methyl-pyridine-2-carbonitrile], the IC50 in assay [1] amounted to 1.83 nM; in assay [2], 234 nM; in assay [3], 7580 nM.

As for `Cc1cc(C#N)ncc1Oc1cc(Nc2ccc(C(=O)N3C[C@H](O)[C@@H](N4CCOCC4)C3)cn2)c2ncn(C)c2n1` [Compound 154, 5-{7-[5-((3S,4S)-3-Hydroxy-4-morpholin-4-yl-pyrrolidine-1-carbonyl)-pyridin-2-ylamino]-3-methyl-3H-imidazo[4,5-b]pyridin-5-yloxy}-4-methyl-pyridine-2-carbonitrile], the values for the IC50 in assay [1], in assay [2] and in assay [3] were 3.36 nM, 351 nM and 8720 nM, respectively.

On to `Cc1cc(C#N)ncc1Oc1cc(Nc2ccc(C(=O)N3CC4CC3CO4)cn2)c2ncn(C)c2n1` (stereo not drawn) [Compound 158, 4-methyl-5-[3-methyl-7-[[5-(2-oxa-5-azabicyclo[2.2.1]heptane-5-carbonyl)pyridin-2-yl]amino]imidazo[4,5-b]pyridin-5-yl]oxypyridine-2-carbonitrile], for which the IC50 stood at 1.21 nM in assay [1], 87 nM in assay [2] and 204 nM in assay [3].

With `Cc1cc(C#N)ncc1Oc1cc(Nc2ccc(C(=O)N3CCNCC3)cn2)c2ncn(C)c2n1` [Compound 178, 4-methyl-5-[3-methyl-7-[[5-(piperazine-1-carbonyl)pyridin-2-yl]amino]imidazo[4,5-b]pyridin-5-yl]oxypyridine-2-carbonitrile], the results for the IC50 in assay [1], in assay [2] and in assay [3] were 3.39 nM, 189 nM and 2570 nM, respectively.

For orientation: IC50 means the midpoint of a concentration-inhibition curve.
